From ChEMBL document CHEMBL1201862, “PubChem BioAssay data set” (2004)
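Values below derive from 48-hour exposures of cells grown in 96-well plates, with endpoints linearly interpolated between the two concentrations bracketing the appropriate inhibition level. GI50 marks 50% less growth.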 Active and inactive are the calls of the source. Cut-off read from the data, not from the text of the source: active = GI50 up to about 1.1 µM and inactive = higher.

Key:
Assay in all cases: NCI tumour cell line growth inhibition, 48 h
BT-549 = test system: BT-549
COLO 205 = test system: COLO 205
EKVX = test system: EKVX
HCT-116 = test system: HCT-116
HOP-62 = test system: HOP-62
Hs-578T = test system: Hs-578T
IGROV-1 = test system: IGROV-1
K562 = test system: K562
MDA-MB-231 = test system: MDA-MB-231
MDA-MB-435 = test system: MDA-MB-435
NCI-H522 = test system: NCI-H522
NCI/ADR-RES = test system: NCI/ADR-RES
OVCAR-4 = test system: OVCAR-4
PC-3 = test system: PC-3
SF-295 = test system: SF-295
SF-539 = test system: SF-539
SK-OV-3 = test system: SK-OV-3
SNB-75 = test system: SNB-75
U-251 = test system: U-251
UACC-62 = test system: UACC-62

Row | SMILES | GI50 (BT-549) | GI50 (COLO 205) | GI50 (EKVX) | GI50 (HCT-116) | GI50 (HOP-62) | GI50 (Hs-578T) | GI50 (IGROV-1) | GI50 (K562) | GI50 (MDA-MB-231) | GI50 (MDA-MB-435) | GI50 (NCI-H522) | GI50 (NCI/ADR-RES) | GI50 (OVCAR-4) | GI50 (PC-3) | GI50 (SF-295) | GI50 (SF-539) | GI50 (SK-OV-3) | GI50 (SNB-75) | GI50 (U-251) | GI50 (UACC-62)
1 | CC(C)c1ccc2c(c1)CCC1C(C)(CN)CCCC21C (stereo not given) | 1.88 µM (inactive) | 0.575 µM (active) | 1.86 µM (inactive) | 1.59 µM (inactive) | 1.75 µM (inactive) | 1.63 µM (inactive) | 1.71 µM (inactive) | 0.551 µM (active) | 1.42 µM (inactive) | 1.44 µM (inactive) | 1.79 µM (inactive) | 1.64 µM (inactive) | 1.61 µM (inactive) | 1.59 µM (inactive) | 1.82 µM (inactive) | 1.79 µM (inactive) | 2.11 µM (inactive) | 1.94 µM (inactive) | 1.38 µM (inactive) | 1.77 µM (inactive)
2 | C[C@]12CC[C@@H]3c4cc(OCC(F)(F)F)c(O)cc4C(=O)C[C@H]3[C@@H]1CC[C@@H]2O | 6.34 µM (inactive) | 26.6 µM (inactive) | 14.7 µM (inactive) | 3.72 µM (inactive) | 12.6 µM (inactive) | 4.92 µM (inactive) | 13.6 µM (inactive) | 2.26 µM (inactive) | 12.9 µM (inactive) | 1.78 µM (inactive) | 3.3 µM (inactive) | 6.35 µM (inactive) | 27.2 µM (inactive) | 18.5 µM (inactive) | 3.6 µM (inactive) | 5.09 µM (inactive) | 10.6 µM (inactive) | 5.36 µM (inactive) | 4.67 µM (inactive) | 3.26 µM (inactive)
3 | Cc1cc(NC2=CC(=O)C(=O)c3ccccc32)no1 | 5.53 µM (inactive) | 16.1 µM (inactive) | 16.1 µM (inactive) | 14.7 µM (inactive) | 17.6 µM (inactive) | 9.4 µM (inactive) | 8.28 µM (inactive) | 3.89 µM (inactive) | 2.83 µM (inactive) | 1.88 µM (inactive) | 18.5 µM (inactive) | 3.87 µM (inactive) | 8.22 µM (inactive) | 10.3 µM (inactive) | 9.1 µM (inactive) | 6.4 µM (inactive) | 19.4 µM (inactive) | 9.44 µM (inactive) | 3.92 µM (inactive) | 3.23 µM (inactive)
4 | COC(=O)c1ccccc1OCc1cc(=O)oc2ccc(C)cc12 | 18.1 µM (inactive) | > 100 µM (inactive) | > 100 µM (inactive) | 43.1 µM (inactive) | 20 µM (inactive) | 27.3 µM (inactive) | 64.7 µM (inactive) | > 100 µM (inactive) | 84.9 µM (inactive) | > 100 µM (inactive) | 14.8 µM (inactive) | 64.7 µM (inactive) | 20 µM (inactive) | > 100 µM (inactive) | 28.2 µM (inactive) | 20.2 µM (inactive) | 63.8 µM (inactive) | 16.2 µM (inactive) | 14.4 µM (inactive) | > 39.2 µM (inactive)
5 | COc1ccccc1Cn1c2c(c3c(C(=O)NCCN(C)C)c(O)ccc31)C(=O)c1ccccc1C2=O | 7.13 µM (inactive) | 1.94 µM (inactive) | 1.82 µM (inactive) | 0.759 µM (active) | 1.92 µM (inactive) | 1.9 µM (inactive) | 1.68 µM (inactive) | 0.977 µM (active) | 1.99 µM (inactive) | 1.69 µM (inactive) | 1.69 µM (inactive) | 2.02 µM (inactive) | 1.65 µM (inactive) | 2.09 µM (inactive) | 1.87 µM (inactive) | 1.9 µM (inactive) | 6.52 µM (inactive) | 1.55 µM (inactive) | 1.91 µM (inactive) | 1.83 µM (inactive)
6 | C(=N/c1ccccc1C1SCCCS1)/c1ccccc1 | > 100 µM (inactive) | > 100 µM (inactive) | > 100 µM (inactive) | > 100 µM (inactive) | > 100 µM (inactive) | > 100 µM (inactive) | > 100 µM (inactive) | > 100 µM (inactive) | > 100 µM (inactive) | > 100 µM (inactive) | > 100 µM (inactive) | > 100 µM (inactive) | > 100 µM (inactive) | > 100 µM (inactive) | > 100 µM (inactive) | > 100 µM (inactive) | > 100 µM (inactive) | > 100 µM (inactive) | > 100 µM (inactive) | > 100 µM (inactive)
7 | O=CN1CCN(C(=O)c2ccc(Cl)cc2)C1=S | 25.4 µM (inactive) | 20.7 µM (inactive) | 15.6 µM (inactive) | 18 µM (inactive) | 19.1 µM (inactive) | 49.5 µM (inactive) | 14.2 µM (inactive) | 12.9 µM (inactive) | 16.4 µM (inactive) | 14.8 µM (inactive) | 14.8 µM (inactive) | 36.5 µM (inactive) | 17.3 µM (inactive) | 15.7 µM (inactive) | 26.9 µM (inactive) | 26.6 µM (inactive) | 25.1 µM (inactive) | 20 µM (inactive) | 14.4 µM (inactive) | 15.9 µM (inactive)
8 | CCC[C@H](N[S+]([O-])c1ccc(C)cc1)C(C(=O)OCC)=C(c1ccccc1)c1ccccc1 (stereo not given in full) | 21.2 µM (inactive) | 22.2 µM (inactive) | 18.2 µM (inactive) | 14.1 µM (inactive) | 19 µM (inactive) | 25.8 µM (inactive) | 25.1 µM (inactive) | 21.3 µM (inactive) | 18.7 µM (inactive) | 17.1 µM (inactive) | 17.3 µM (inactive) | 27.7 µM (inactive) | 16.7 µM (inactive) | 15 µM (inactive) | 17.8 µM (inactive) | 22.9 µM (inactive) | 24.6 µM (inactive) | 17.8 µM (inactive) | 16.2 µM (inactive) | 13.4 µM (inactive)
9 | C=C1CC2(OC1=O)c1ccccc1C=Cc1ccccc12 | 1.83 µM (inactive) | 2.3 µM (inactive) | 8.85 µM (inactive) | 1.73 µM (inactive) | 12.6 µM (inactive) | 2.51 µM (inactive) | 7.26 µM (inactive) | 1.2 µM (inactive) | 2.26 µM (inactive) | 1.68 µM (inactive) | 1.76 µM (inactive) | 1.64 µM (inactive) | 4.4 µM (inactive) | 5.79 µM (inactive) | 18 µM (inactive) | 2.83 µM (inactive) | 16.9 µM (inactive) | 9.18 µM (inactive) | 8.04 µM (inactive) | 5.13 µM (inactive)
10 | C(#Cc1ccccc1)SC1=C(c2ccccc2)S/C(=C(\SC#Cc2ccccc2)c2ccccc2)S1 | > 100 µM (inactive) | > 100 µM (inactive) | > 100 µM (inactive) | > 100 µM (inactive) | > 100 µM (inactive) | > 100 µM (inactive) | > 100 µM (inactive) | > 100 µM (inactive) | > 100 µM (inactive) | > 100 µM (inactive) | > 100 µM (inactive) | > 100 µM (inactive) | > 100 µM (inactive) | > 100 µM (inactive) | > 100 µM (inactive) | > 100 µM (inactive) | > 100 µM (inactive) | > 100 µM (inactive) | > 100 µM (inactive) | > 100 µM (inactive)
11 | CC(C)(CN1CCCCC1)C(=O)CC(SCCS(=O)(=O)O)c1ccc(Cl)cc1 (stereo not given) | 8.04 µM (inactive) | 2.86 µM (inactive) | 3.67 µM (inactive) | 3.03 µM (inactive) | 11.5 µM (inactive) | 3.2 µM (inactive) | 6.15 µM (inactive) | 3.09 µM (inactive) | 3.1 µM (inactive) | 3.48 µM (inactive) | 2.51 µM (inactive) | 5.97 µM (inactive) | 3.84 µM (inactive) | 4.44 µM (inactive) | 0.925 µM (active) | 2.3 µM (inactive) | 15.5 µM (inactive) | 4.32 µM (inactive) | 10.5 µM (inactive) | 4.21 µM (inactive)
12 | CCOC(=O)/C=C(/C(=O)OCC)n1ccc(=O)n(Cc2cnnn2CCCCOC(C)=O)c1=O | 60.3 µM (inactive) | 19.1 µM (inactive) | 63.8 µM (inactive) | > 100 µM (inactive) | > 100 µM (inactive) | > 100 µM (inactive) | > 100 µM (inactive) | 70.1 µM (inactive) | > 100 µM (inactive) | > 100 µM (inactive) | 20.7 µM (inactive) | > 100 µM (inactive) | > 100 µM (inactive) | > 100 µM (inactive) | > 100 µM (inactive) | 36.6 µM (inactive) | > 100 µM (inactive) | > 100 µM (inactive) | > 100 µM (inactive) | > 100 µM (inactive)
13 | CC1=NN2C(=O)CC(=O)N=C2S1 | > 100 µM (inactive) | > 100 µM (inactive) | > 100 µM (inactive) | > 100 µM (inactive) | > 100 µM (inactive) | > 100 µM (inactive) | > 100 µM (inactive) | > 100 µM (inactive) | > 100 µM (inactive) | > 100 µM (inactive) | > 100 µM (inactive) | > 100 µM (inactive) | > 100 µM (inactive) | > 100 µM (inactive) | > 100 µM (inactive) | > 100 µM (inactive) | > 100 µM (inactive) | > 100 µM (inactive) | > 100 µM (inactive) | > 100 µM (inactive)
14 | Cc1cnc2nc(-c3sccc3C)cc(O)c2c1 | 9.42 µM (inactive) | 3.21 µM (inactive) | 7.06 µM (inactive) | 3.33 µM (inactive) | 5.08 µM (inactive) | 2.3 µM (inactive) | 1.49 µM (inactive) | 5.04 µM (inactive) | 18.1 µM (inactive) | 0.342 µM (active) | 1.12 µM (active) | 2.31 µM (inactive) | > 100 µM (inactive) | 3.78 µM (inactive) | 2.26 µM (inactive) | 5.81 µM (inactive) | 4.03 µM (inactive) | 4.32 µM (inactive) | 4.86 µM (inactive) | 2.59 µM (inactive)
